Test results taken from ChEMBL document CHEMBL1201862, “PubChem BioAssay data set” (2004).
One block for each molecule: values may come before it. Activity calls are given as the source filed them.

How the values were obtained:
HEK293 [1] = experiment: cells; type: functional, cell-based; details: Homo sapiens
BJ [2] = experiment: cells; type: functional, cell-based; details: Homo sapiens
BJ [3] = experiment: cytotoxicity toward BJ-TERT-LT-ST fibroblasts, dose response, cell-based, RAS-independent, luminescence (AID 1935); type: functional; details: Homo sapiens;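 also: BJ fibroblasts immortalized with TERT plus LT and ST oncogenes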
Paired box protein Pax-8 = Paired box protein Pax-8 (Homo sapiens, UniProt Q06710); experiment: inhibitors of PAX8-driven TPO luciferase reporter, dose response, RMG-I cells, cherry-pick (AID 687027); type: functional, cell-based;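 also: luciferase reporter driven by Pax8 target thyroperoxidase promoter measured by SteadyGlo luminescence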
[4] = cytotoxicity in HEK-293T cells, dose response, cytotoxicity control for TCR NF-kB inhibitor project, luminescence, T-cell screen hits (AID 489026); type: functional, cell-based;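 also: cells exposed to compound about 14 hours before the viability readout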
HEK293 [5] = experiment: cells; type: functional, cell-based; details: Homo sapiens; remark: listed apart in the source
BJ [6] = experiment: cytotoxicity toward Ras-transformed BJeLR fibroblasts, dose response, cell-based, alamar blue fluorescence, cherrypicked samples (AID 2631); type: functional; details: Homo sapiens;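 also: confirmatory dose-response assay in RAS-dependent BJ fibroblasts engineered with TERT, LT and ST, with cytotoxicity read by fluorescence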
BJ [7] = experiment: cytotoxicity toward BJ-TERT fibroblasts, dose response, cell-based, RAS-independent, luminescence (AID 1933); type: functional; details: Homo sapiens
[8] = non-specific cell cytotoxicity, dose response, cytotoxicity control for PAX8 inhibitor project, plate reader, dry powder samples (AID 743021); type: functional, cell-based
[9] = cytotoxicity toward DRD oncogenic fibroblasts, dose response, cell-based, non-viral oncogenic, luminescence (AID 1934); type: functional; details: Homo sapiens
HEK293 [10] = experiment: NOD1 signaling inhibitors, primary screen, cell-based, luminescence, uHTS (AID 1578); type: functional; details: Homo sapiens
HEK293 [11] = experiment: NOD2 signaling inhibitors in MDP-stimulated cells, cell-based, uHTS, luminescence (AID 2001); type: functional; details: Homo sapiens
[12] = target: T1, RNA-binding protein pos-1 (Caenorhabditis elegans, UniProt G5EF15); experiment: inhibitors of POS-1/mex-3 RNA binding, dose response, biochemical, fluorescence polarization (AID 1964);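 also: purified POS-1 fused to maltose binding protein made in E. coli; potency of compounds blocking POS-1 binding to fluorescent RNA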
T1 sequence (G5EF15 whole entry): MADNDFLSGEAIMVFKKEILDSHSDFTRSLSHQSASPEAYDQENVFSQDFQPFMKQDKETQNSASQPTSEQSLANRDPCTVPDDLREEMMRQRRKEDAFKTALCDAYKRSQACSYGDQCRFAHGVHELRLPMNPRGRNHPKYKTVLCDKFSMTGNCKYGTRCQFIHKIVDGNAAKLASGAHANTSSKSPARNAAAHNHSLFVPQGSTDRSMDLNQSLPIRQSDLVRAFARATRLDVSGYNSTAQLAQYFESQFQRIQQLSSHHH

[13] = target: T2, Zinc finger protein mex-5 (Caenorhabditis elegans, UniProt Q9XUB2); experiment: MEX-5/TCR-2 RNA interaction inhibitors, dose response, biochemical, C. elegans, fluorescence polarization (AID 1960)
T2 sequence (Q9XUB2 whole entry): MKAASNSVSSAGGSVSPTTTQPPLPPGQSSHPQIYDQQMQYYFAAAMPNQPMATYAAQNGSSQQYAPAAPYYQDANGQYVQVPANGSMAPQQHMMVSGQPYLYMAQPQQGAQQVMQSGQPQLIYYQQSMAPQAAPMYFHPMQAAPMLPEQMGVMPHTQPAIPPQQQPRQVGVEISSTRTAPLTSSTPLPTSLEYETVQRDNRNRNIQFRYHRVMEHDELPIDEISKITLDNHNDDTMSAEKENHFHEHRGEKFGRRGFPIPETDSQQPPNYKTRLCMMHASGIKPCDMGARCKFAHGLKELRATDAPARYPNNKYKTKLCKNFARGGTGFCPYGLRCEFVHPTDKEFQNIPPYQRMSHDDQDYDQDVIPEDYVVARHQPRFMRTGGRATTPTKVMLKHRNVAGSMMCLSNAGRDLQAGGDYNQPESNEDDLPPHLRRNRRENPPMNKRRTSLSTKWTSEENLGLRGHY

Albumin = Albumin (Bos taurus, UniProt P02769); experiment: Counterscreen for inhibitors of T-cell receptor (TCR)-CD3 interaction: Fluorescence-based biochemical high throughput dose response assay to identify inhibitors of T-cell receptor (TCR)-CD3 interaction using a TAMRA-labeled BSA probe.; type: functional
Chain of Albumin (P02769 whole entry): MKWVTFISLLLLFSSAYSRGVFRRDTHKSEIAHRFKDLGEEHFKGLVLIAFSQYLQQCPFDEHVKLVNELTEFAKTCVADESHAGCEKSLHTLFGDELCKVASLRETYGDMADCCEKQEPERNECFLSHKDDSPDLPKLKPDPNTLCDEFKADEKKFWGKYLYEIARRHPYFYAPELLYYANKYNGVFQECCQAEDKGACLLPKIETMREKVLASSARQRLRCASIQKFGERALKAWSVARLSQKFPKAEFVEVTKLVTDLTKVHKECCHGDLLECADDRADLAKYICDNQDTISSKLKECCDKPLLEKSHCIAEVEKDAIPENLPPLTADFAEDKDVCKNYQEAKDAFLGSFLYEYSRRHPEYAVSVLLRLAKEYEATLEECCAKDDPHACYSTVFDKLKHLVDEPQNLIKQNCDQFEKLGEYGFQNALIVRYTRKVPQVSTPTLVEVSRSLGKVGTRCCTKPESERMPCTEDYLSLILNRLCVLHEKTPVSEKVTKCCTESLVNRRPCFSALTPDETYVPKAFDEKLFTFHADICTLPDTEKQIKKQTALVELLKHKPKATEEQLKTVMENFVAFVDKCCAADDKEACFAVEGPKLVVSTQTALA

Genome polyprotein = Genome polyprotein (dengue virus type 2, UniProt P29990); experiment: Dengue-2 NS5 methyltransferase inhibitors, primary screen, biochemical, confirmation dose response (AID 588689); type: functional
Chain of Genome polyprotein (P29990 2492-3391 limits assumed): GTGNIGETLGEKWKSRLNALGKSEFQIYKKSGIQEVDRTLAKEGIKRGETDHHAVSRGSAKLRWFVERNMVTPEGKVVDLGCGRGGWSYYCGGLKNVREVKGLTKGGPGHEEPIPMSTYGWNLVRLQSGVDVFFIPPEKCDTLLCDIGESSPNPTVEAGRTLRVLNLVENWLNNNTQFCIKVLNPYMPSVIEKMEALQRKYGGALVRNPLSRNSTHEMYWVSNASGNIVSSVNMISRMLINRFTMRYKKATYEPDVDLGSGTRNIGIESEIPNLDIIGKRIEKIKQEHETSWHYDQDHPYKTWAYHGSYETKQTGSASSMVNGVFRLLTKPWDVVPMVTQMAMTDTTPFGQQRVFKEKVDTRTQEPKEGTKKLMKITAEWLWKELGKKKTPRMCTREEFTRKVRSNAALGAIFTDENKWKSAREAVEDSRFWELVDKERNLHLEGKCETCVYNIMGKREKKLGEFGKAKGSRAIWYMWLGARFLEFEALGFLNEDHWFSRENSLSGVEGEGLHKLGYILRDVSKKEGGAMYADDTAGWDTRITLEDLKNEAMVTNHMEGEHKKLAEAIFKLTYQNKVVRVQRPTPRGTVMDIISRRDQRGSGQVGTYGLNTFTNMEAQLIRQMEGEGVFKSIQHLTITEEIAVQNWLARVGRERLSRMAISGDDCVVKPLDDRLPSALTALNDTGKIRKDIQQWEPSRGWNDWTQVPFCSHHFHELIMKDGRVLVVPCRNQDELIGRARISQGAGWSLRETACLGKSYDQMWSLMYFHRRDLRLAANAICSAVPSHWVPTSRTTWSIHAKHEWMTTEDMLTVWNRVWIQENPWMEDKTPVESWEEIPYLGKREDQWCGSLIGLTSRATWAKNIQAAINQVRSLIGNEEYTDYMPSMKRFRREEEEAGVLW

[14] = target: Mitogen-activated protein kinase 10 (Homo sapiens, UniProt P53779); experiment: Dose response biochemical screening assay for inhibitors of c-Jun N-Terminal Kinase 3 (JNK3). [Related pubchem assays: 746 ]
Chain of Mitogen-activated protein kinase 10 (P53779 whole entry): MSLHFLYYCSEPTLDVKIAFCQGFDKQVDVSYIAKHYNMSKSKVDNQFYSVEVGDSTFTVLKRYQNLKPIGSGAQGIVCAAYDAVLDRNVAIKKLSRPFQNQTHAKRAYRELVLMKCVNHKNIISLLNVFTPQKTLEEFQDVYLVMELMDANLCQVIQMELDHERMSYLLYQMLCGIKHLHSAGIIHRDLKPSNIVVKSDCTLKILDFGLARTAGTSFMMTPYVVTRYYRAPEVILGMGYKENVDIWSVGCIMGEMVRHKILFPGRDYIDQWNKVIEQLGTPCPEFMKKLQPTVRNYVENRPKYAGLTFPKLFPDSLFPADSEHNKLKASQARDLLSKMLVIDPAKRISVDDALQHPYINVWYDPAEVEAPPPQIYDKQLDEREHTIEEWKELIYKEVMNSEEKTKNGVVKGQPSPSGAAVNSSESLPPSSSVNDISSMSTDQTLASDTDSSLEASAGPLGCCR

[15] = Shn3 3'UTR reporter inhibitors, dose response, cell-based, Clone20 osteoblasts, firefly luciferase, cherry-picked (AID 624132); type: functional;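 also: firefly luciferase luminescence from reporter carrying the Shn3 3'UTR in osteoblasts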
[16] = HepG2 cell cytotoxicity, dose response, cytotoxicity control for Shn3 inhibitor project, CellTiter-Glo, cherry-picked (AID 624134); type: functional, cell-based
[17] = target: T3, COUP transcription factor 2 (Homo sapiens, UniProt P24468); experiment: Luminescence-based cell-based high throughput dose response assay to identify inhibitors of COUP-TFII (NR2F2).; type: functional;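 also: HEK293 cells transiently cotransfected with COUP-TFII expression vector and reporter; luciferase reporter luminescence driven by COUP-TFII from the pX2-168 reporter plasmid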
T3 sequence (P24468 whole entry): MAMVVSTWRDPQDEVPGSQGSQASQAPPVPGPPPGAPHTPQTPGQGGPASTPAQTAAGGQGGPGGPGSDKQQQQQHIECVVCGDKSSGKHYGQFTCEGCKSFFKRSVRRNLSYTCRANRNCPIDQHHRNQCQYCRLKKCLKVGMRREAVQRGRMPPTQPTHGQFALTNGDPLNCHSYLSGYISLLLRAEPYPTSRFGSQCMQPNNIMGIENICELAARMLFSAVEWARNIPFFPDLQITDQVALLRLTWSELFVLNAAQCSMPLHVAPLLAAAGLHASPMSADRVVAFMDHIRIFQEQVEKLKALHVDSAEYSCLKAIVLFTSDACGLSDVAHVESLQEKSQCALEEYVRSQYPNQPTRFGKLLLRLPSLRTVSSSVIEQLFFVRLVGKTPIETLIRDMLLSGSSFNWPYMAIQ

[18] = control 3'UTR Renilla luciferase suppression, dose response, counter-screen for Shn3 inhibitor project, cell-based, Clone20-Shn3RL, cherry-picked (AID 624133); type: functional
[19] = LGR2 antagonists, dose response, cell-based, HEK293, CRE-luciferase reporter, cherry pick, set 2 (AID 743343); type: functional;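 also: transfected cells were stimulated with diluted bursicon conditioned medium after compound addition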
[20] = HepG2 cell cytotoxicity, dose response, cytotoxicity control, plate reader, cherry-pick, antagonist series (AID 743416); type: functional, cell-based
[21] = MC4R antagonists, dose response, counter-screen for LGR2 antagonist project, cell-based, plate reader, cherry pick (AID 743444); type: functional;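 also: transfected HEK 293 cells stimulated with alpha-MSH peptide; potency of inhibitors of the alpha-MSH evoked signal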
[22] = A549 cell cytotoxicity, dose response, cytotoxicity control, plate reader, cherry-pick, antagonist series (AID 743412); type: functional, cell-based
[23] = target: NAD-dependent protein deacylase sirtuin-5, mitochondrial (Homo sapiens, UniProt Q9NXA8); experiment: SIRT5 desuccinylase inhibitors, dose response, biochemical, fluorescence imaging, cherry-pick, set 5 (AID 720591);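 also: desuccinylation of succinyl peptide AMC substrate read as fluorescence after trypsin release; potency of inhibitors that lower fluorescence and may act on trypsin instead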
Chain of NAD-dependent protein deacylase sirtuin-5, mitochondrial (Q9NXA8 whole entry): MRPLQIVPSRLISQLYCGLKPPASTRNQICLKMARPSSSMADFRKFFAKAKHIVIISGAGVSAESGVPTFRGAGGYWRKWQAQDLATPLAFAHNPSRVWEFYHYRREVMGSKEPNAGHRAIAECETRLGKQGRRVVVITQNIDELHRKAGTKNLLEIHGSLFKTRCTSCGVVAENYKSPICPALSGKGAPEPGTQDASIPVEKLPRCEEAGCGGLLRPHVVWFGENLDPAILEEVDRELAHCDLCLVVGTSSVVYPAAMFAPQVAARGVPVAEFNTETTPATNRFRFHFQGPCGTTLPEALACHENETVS

INS1 = experiment: beta cell apoptosis inhibitors, cytokine rescue, dose response, luminescence, retest (AID 449756); type: functional, cell-based; details: Rattus norvegicus;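 also: cell death triggered by IL-1 beta plus TNF-alpha plus IFN-gamma mixture; protective hits raise ATP signal compared with cytokine alone wells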
[24] = ADAM10 protease inhibitors, dose response, selectivity assay for ADAM17 exosite inhibitor project, biochemical, FRET peptide substrate, recombinant human ADAM10 (AID 743259);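 also: ADAM10 enzyme cleaving a FRET peptide substrate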
[25] = target: Disintegrin and metalloproteinase domain-containing protein 17 (Homo sapiens, UniProt P78536); experiment: exosite inhibitors of ADAM17, dose response, biochemical (AID 743260)
Chain of Disintegrin and metalloproteinase domain-containing protein 17 (P78536 whole entry, the tested form may be a part): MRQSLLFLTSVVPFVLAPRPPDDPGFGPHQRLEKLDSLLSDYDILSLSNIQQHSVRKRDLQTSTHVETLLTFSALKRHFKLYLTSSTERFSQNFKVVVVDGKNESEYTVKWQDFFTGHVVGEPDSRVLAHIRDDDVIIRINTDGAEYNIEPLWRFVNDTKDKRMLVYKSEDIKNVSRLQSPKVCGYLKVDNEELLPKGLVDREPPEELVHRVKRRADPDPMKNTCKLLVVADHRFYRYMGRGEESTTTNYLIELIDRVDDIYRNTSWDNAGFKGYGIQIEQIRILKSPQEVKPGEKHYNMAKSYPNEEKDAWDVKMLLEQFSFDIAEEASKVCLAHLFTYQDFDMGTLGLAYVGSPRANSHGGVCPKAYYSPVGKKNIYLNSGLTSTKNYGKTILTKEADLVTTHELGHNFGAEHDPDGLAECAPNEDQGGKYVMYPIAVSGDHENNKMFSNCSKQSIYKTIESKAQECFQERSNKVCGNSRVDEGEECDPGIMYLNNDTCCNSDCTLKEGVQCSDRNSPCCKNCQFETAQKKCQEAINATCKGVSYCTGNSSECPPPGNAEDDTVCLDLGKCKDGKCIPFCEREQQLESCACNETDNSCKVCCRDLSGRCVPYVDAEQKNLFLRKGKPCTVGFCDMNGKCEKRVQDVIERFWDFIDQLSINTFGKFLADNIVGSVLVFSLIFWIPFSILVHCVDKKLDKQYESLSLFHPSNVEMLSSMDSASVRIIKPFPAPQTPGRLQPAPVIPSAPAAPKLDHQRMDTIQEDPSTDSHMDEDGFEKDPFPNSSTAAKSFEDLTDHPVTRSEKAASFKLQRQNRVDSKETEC

[26] = target: Peroxisome proliferator-activated receptor gamma/Nuclear receptor coactivator 3 (Homo sapiens, UniProt P37231); experiment: (§1) TR-FRET dose response biochemical High Throughput Screening assay for agonists of the steroid receptor coactivator 3 (SRC-3) recruitment by the peroxisome proliferator-activated receptor gamma (PPAR gamma): non-selective agonists. [Related pubchem assays: 1301 (Confirmation screen.), 1048 (Primary screen.)]; type: functional
[27] = target: Peroxisome proliferator-activated receptor gamma/Nuclear receptor coactivator 1 (Homo sapiens, UniProt P37231); experiment: as §1, with “1 (SRC-1)” for “3 (SRC-3)”, “assays (depositor defined):AID1300, AID1808, AID504735, AID631]” for “assays: 1301 (Confirmation screen.), 1048 (Primary screen.)]”; type: protein assay
Chain of Peroxisome proliferator-activated receptor gamma/Nuclear receptor coactivator 1 (P37231 whole entry): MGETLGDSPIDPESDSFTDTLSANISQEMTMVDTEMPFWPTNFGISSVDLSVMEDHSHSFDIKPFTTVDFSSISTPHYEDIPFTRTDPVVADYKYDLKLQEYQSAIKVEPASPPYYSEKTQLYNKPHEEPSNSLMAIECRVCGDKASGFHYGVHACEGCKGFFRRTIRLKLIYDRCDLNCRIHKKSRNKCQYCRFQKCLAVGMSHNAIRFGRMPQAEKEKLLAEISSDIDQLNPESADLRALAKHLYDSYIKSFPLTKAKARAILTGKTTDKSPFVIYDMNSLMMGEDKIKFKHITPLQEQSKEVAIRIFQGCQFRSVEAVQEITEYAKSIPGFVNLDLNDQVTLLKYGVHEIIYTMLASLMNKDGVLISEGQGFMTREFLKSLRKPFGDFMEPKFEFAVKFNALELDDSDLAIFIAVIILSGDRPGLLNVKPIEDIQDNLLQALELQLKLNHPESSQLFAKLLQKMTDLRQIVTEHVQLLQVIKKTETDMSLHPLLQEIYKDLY
Chain of Peroxisome proliferator-activated receptor gamma/Nuclear receptor coactivator 1 (Q15788 whole entry, further chain): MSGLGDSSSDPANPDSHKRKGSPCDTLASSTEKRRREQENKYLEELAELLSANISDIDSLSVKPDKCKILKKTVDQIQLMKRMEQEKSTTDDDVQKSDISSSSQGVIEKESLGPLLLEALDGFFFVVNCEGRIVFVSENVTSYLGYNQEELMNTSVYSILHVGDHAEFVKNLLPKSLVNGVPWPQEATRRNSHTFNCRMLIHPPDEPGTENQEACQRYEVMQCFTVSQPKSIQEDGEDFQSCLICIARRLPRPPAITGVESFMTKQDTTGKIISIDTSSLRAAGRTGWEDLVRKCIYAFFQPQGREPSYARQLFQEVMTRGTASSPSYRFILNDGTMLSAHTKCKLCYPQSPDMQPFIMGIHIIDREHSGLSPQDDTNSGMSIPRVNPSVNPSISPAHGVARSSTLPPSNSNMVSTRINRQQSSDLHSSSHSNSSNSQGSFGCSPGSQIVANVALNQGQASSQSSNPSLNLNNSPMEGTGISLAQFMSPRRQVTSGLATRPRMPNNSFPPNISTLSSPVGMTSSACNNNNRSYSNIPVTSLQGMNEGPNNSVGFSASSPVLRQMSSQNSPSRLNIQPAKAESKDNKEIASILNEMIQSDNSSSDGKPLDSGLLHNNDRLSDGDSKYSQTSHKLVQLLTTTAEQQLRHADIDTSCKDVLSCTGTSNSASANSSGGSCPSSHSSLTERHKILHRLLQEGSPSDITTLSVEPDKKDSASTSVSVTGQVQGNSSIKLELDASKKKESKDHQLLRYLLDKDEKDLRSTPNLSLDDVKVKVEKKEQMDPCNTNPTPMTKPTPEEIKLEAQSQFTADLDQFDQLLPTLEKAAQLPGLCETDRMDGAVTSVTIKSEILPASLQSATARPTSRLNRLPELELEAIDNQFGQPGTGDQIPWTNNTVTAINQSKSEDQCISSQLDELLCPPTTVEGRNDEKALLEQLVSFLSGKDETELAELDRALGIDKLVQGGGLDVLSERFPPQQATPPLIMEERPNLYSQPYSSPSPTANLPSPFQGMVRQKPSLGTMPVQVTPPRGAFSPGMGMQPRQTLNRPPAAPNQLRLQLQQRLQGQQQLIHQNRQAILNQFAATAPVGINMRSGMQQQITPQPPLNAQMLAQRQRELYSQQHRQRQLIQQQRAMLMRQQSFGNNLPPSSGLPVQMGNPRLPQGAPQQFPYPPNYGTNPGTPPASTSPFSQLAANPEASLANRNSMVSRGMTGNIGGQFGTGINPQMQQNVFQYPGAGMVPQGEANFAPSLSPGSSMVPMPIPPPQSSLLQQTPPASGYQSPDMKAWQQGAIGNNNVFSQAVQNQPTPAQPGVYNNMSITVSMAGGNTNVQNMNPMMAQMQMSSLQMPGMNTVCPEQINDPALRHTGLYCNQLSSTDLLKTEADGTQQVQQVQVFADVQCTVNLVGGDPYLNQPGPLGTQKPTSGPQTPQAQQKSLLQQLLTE

[28] = target: Peroxisome proliferator-activated receptor gamma/Nuclear receptor coactivator 2 (Homo sapiens, UniProt P37231); experiment: TR-FRET dose response biochemical High Throughput Screening assay for agonists of the steroid receptor coactivator 2 (SRC-2) recruitment by the peroxisome proliferator-activated receptor gamma (PPAR gamma): non-selective agonists. [Related pubchem assays: 1297, 1032 ]; type: functional

Structure (SMILES): COc1ccc(C(C(=O)NC2CCCCC2)N(C(=O)CCl)c2ccc(C)cc2)cc1 (centres undefined)
- IC50 (HEK293 [1]): 17.5 µM (active)
- EC50 (BJ [2]): 2.63 µM (active)
- EC50 (BJ [3]): 6.27 µM (active)
- AC50 (Paired box protein Pax-8): 0.533 µM (active)
- IC50 [4]: > 80 µM (inactive)
- IC50 (HEK293 [5]): 5.75 µM (active)
- EC50 (BJ [6]): 9.18 µM (active)
- EC50 (BJ [7]): 0.84 µM (inconclusive)
- AC50 [8]: 0.827 µM (active)
- EC50 [9]: 0.748 µM (active)
- EC50 (HEK293 [10]): 15.6 µM (active)
- IC50 (HEK293 [11]): 7.21 µM (active)

Structure (SMILES): CCC(=O)Nc1ccc2nc3c(O)nc(S)nc3nc2c1
- EC50 [12]: 20.9 µM (active)
- EC50 [13]: 12.3 µM (active)
- IC50 (Albumin): > 94.1 µM (inactive)
- IC50 (Genome polyprotein): 39.4 µM (active)

Structure (SMILES): CCCc1cc(O)n2c(n1)nc1ccccc12
- IC50 [14]: 35 µM (not active)

Structure (SMILES): COc1cccc(CN(C)C(=O)c2ccc(OCC(=O)Nc3cccc(C(F)(F)F)c3)c(OC)c2)c1
- AC50 [15]: 4.93 µM (active)
- IC50 [4]: > 80 µM (inactive)
- AC50 [16]: 3.38 µM (active)
- IC50 [17]: 4.57 µM (active)
- AC50 [18]: 14.4 µM (active)

Structure (SMILES): O=C(Nc1ccc2c(c1)OCCO2)c1ccc(Cl)cc1Cl
- AC50 [19]: 11.6 µM (active)
- AC50 [20]: > 52 µM (inactive)
- AC50 [21]: 15.2 µM (active)
- AC50 [22]: > 52 µM (inactive)

Structure (SMILES): Cc1cccc(C2(c3cccc(C)c3)OC(=O)c3ccccc32)c1
- AC50 (INS1): 17.7 µM (active)
- IC50 [24]: > 23.2 µM (inactive)
- IC50 [25]: > 69.5 µM (inactive)

Structure (SMILES): CCN1C(=O)/C(=C/c2ccc(C)s2)NC1=S
- IC50 [24]: > 69.5 µM (inactive)
- IC50 [25]: > 69.5 µM (inactive)

Now from value to molecule, other results behind:

- AC50 [23]: > 30 µM (inactive)
Structure (SMILES): CN(C)C(=O)c1cc(C(=O)c2ccc(C(F)(F)F)cc2F)c[nH]1

- IC50 [25]: > 69.5 µM (inactive)
Structure (SMILES): Cc1ccc(S(=O)(=O)N2CCCCC2)cc1NC(=O)CNc1ccc(C(F)(F)F)cc1
- IC50 [24]: 8.89 µM (active)

- EC50 [26]: > 79.4 µM (not active)
- EC50 [27]: > 79.4 µM (inactive)
- IC50 [14]: 15.5 µM (not active)
- EC50 [28]: > 79.4 µM (not active)
Structure (SMILES): Cc1cn(S(=O)(=O)c2ccc(Br)c3ccccc23)cn1

- AC50 [23]: > 30 µM (inactive)
Structure (SMILES): Cc1cc(S(=O)(=O)Nc2ccc(C(=O)NCC3(N4CCCCC4)CCCCC3)cc2)ccc1F
